Results taken from US4818753A, “Synthesis and method of use for 2, 4 diaminoquinazoline” (SRI International, priority 1987, dated 1989).
Converted amounts (≈) assume the structure as drawn. Read-outs that look alike come from different tables or passages of the source.

How the values were obtained:
Format in all cases: cell-based
[1] = test system: Epidermophyton floccosum (15693); assay: Broth dilution assay, F4
Description: (§1) Both broth dilution and agar dilution assays were used to assess the antifungal activity of the compounds of the invention. The cultures were maintained in Sabouraud dextrose broth (SDB) and diluted with […]. 2.5 l of SDB was prepared and distributed into sterile vessels as follows: 49 ml into 1 vessel, 27 ml into 3 vessels, 45 ml into 2 vessels.
(§2) Five mg/ml concentration of each compound was prepared using DMSO as the solvent; warming and sonication were necessary to dissolve each compound completely. The compounds were then diluted in SDB according to the following protocol:
(§3) 5. 1 ug/ml--5 ml (3)+45 ml SDB
(§4) The compound at each concentration in SDB was then dispensed into 6 tubes each containing 4 ml […]. Controls (without any compound) were also prepared to insure that the solvent itself was not fungicidal or fungistatic.
(§5) Cultures were grown in SDB for 24 h at 30° C. C. albicans and C. neoformans were diluted 1:10 in SDB before inoculation. Inoculation volume for yeasts was 2 drops of diluted cells per tube. The fungal cultures were homogenized before inoculation. The same volume was added, but without dilution. All tubes were incubated at room temperature on a rotating wheel. After 16 h of incubation at room temperature, the fungistatic assay was set up on agar plates. […] Yeasts were inoculated onto SDA (the corresponding agar) plates and fungi onto mycosel agar plates. These plates were then incubated at room temperature.

[2] = test system: Microsporum gypseum (14683); assay: Broth dilution assay, F12; details: Nannizzia gypsea
Description: as §1, §2, §3, §4, §5

[3] = test system: Ca. guilliermondii MY1019; assay: Agar dilution assay; details: Meyerozyma guilliermondii, MY1019, 48 h, read-out: Minimum inhibitory concentration
From the text: (§6) For the agar dilution assay, the test panel consisted of 18 yeastlike and 3 Filamentus fungii. Four media were used. These were yeast nitrogen base dextrose (0.5% agar) (YNBDA); pH 5.5; YNBDA with pH adjusted to pH 7.5; and micrological agar (MA), pH 7.0; and Sabouraud dextrose agar, pH 5.7. The media was manufactured by Difco (Detroit, MI) and prepared according to the manufacturer's instructions.
(§7) The test compounds were solubilized in 10% aqueous DMSO; the control drug, Nystatin, was solublized in 10% aqueous DMF. The drugs were serially diluted twofold in sterile water to yield concentrations of 1.28 mg/ml to […]. One ml of diluted drug was added to 9 ml of cooled (50° C.) molten agar in plastic petri plates to yield final drug concentrations in the agar ranging from 128 to 0.063 ug/ml. Appropriate solvent and media control plates were prepared as well, and all plates stored in the dark at 4° C. overnight. The yeast cultures, maintained in yeast maltose (YM; Difco), were transferred to fresh YM medium and incubating overnight at 37° C. with shaking at 250 rpm. After incubation each culture was diluted in sterile saline to yield concentrations of 3×10^5 to 3×10^6 cfu/ml. Isolates of aspergillis and penicillium were made on potato dextrose agar slants, and spore suspensions were made following vigorous shaking with sterile glass beads. The spore preparation were used as inocula for these fungi.
(§8) Each prepared place was inoculated with the 21-member panel using a Denleigh multipoint inoculator (Sussex, England). The inoculator delivers approximately 1 ul to the agar surface, resulting in inoculation of from 3×10^2 to 3×10^3 cfu. The plates were incubated at 28° C. for 48 h, and the minimum inhibitory concentrations (MIC) of each drug were recorded as the lower concentration of the drug permitting no growth or growth of less than 3 cfu/spot.

Ca. krusei MY1020 = assay: Agar dilution assay; details: Pichia kudriavzevii, MY1020, 48 h, read-out: Minimum inhibitory concentration
From the text: as §6, §7, §8

Ca. parapsilosis MY1009 = assay: Agar dilution assay; details: MY1009, 48 h, read-out: Minimum inhibitory concentration
From the text: as §6, §7, §8

Ca. parapsilosis MY1010 = assay: Agar dilution assay; details: Lodderomyces parapsilosis, MY1010, 48 h, read-out: Minimum inhibitory concentration
From the text: as §6, §7, §8

[4] = test system: Ca. pseudotropicalis MY1040; assay: Agar dilution assay; details: Kluyveromyces marxianus, MY1040, 48 h, read-out: Minimum inhibitory concentration
From the text: as §6, §7, §8

Ca. stellatoidea MY1017 = assay: Agar dilution assay; details: Candida albicans, MY1017, 48 h, read-out: Minimum inhibitory concentration
From the text: as §6, §7, §8

Ca. tropicalis MY1011 = assay: Agar dilution assay; details: Candida tropicalis, MY1011, 48 h, read-out: Minimum inhibitory concentration
From the text: as §6, §7, §8

[5] = test system: Ca. tropicalis MY1012 (Nystatin resistant isolate); assay: Agar dilution assay; details: Candida tropicalis, 48 h
From the text: as §6, §7, §8

[6] = test system: Cryptococcus neoformans MY1051; assay: Agar dilution assay; details: MY1051, 48 h
From the text: as §6, §7, §8

[7] = test system: Torulopsis glabrata MY1059; assay: Agar dilution assay; details: Nakaseomyces glabratus, MY1059, 48 h, read-out: Minimum inhibitory concentration
From the text: as §6, §7, §8

Candida = assay: Growth of Candida cultures with compound and/or SMX (FIG. 1)

CCCCCCCCc1ccc2nc(N)nc(N)c2c1C [2,4-Diamino-5-methyl-6-n-octylquinazoline]
MFC ([1]; Table 2, F4, Sabouraud Dextrose Broth pH 5.5, read-out: C Fungicidal): 30 µg/mL (≈ 105 µM)
MIC ([1]; Table 2, F4, Sabouraud Dextrose Broth pH 5.5, read-out: S Fungistatic): 1 µg/mL (≈ 3.49 µM)
MFC ([2]; Table 2, Sabouraud Dextrose Broth pH 5.5, read-out: C Fungicidal): 100 µg/mL (≈ 349 µM)
MIC ([2]; Table 2, Sabouraud Dextrose Broth pH 5.5, read-out: S Fungistatic): 30 µg/mL (≈ 105 µM)
MIC ([3]; MA pH 7.0): 16 µg/mL (≈ 55.9 µM)
MIC ([3]; SDA pH 5.7): > 128 µg/mL
MIC ([3]; YNBDA pH 5.5): > 128 µg/mL
MIC ([3]; YNBDA pH 7.5): 16 µg/mL (≈ 55.9 µM)
MIC (Ca. krusei MY1020; MA pH 7.0): 8 µg/mL (≈ 27.9 µM)
MIC (Ca. krusei MY1020; SDA pH 5.7): > 128 µg/mL
MIC (Ca. krusei MY1020; YNBDA pH 5.5): > 128 µg/mL
MIC (Ca. krusei MY1020; YNBDA pH 7.5): 8 µg/mL (≈ 27.9 µM)
MIC (Ca. parapsilosis MY1009; MA pH 7.0): 8 µg/mL (≈ 27.9 µM)
MIC (Ca. parapsilosis MY1009; SDA pH 5.7): > 128 µg/mL
MIC (Ca. parapsilosis MY1009; YNBDA pH 5.5): > 128 µg/mL
MIC (Ca. parapsilosis MY1009; YNBDA pH 7.5): 16 µg/mL (≈ 55.9 µM)
MIC (Ca. parapsilosis MY1010; MA pH 7.0): 4 µg/mL (≈ 14 µM)
MIC (Ca. parapsilosis MY1010; SDA pH 5.7): > 128 µg/mL
MIC (Ca. parapsilosis MY1010; YNBDA pH 5.5): > 128 µg/mL
MIC (Ca. parapsilosis MY1010; YNBDA pH 7.5): 8 µg/mL (≈ 27.9 µM)
MIC ([4]; MA pH 7.0): 4 µg/mL (≈ 14 µM)
MIC ([4]; SDA pH 5.7): 128 µg/mL (≈ 447 µM)
MIC ([4]; YNBDA pH 5.5): 128 µg/mL (≈ 447 µM)
MIC ([4]; YNBDA pH 7.5): 4 µg/mL (≈ 14 µM)
MIC (Ca. stellatoidea MY1017; MA pH 7.0): 16 µg/mL (≈ 55.9 µM)
MIC (Ca. stellatoidea MY1017; SDA pH 5.7): 128 µg/mL (≈ 447 µM)
MIC (Ca. stellatoidea MY1017; YNBDA pH 5.5): > 128 µg/mL
MIC (Ca. stellatoidea MY1017; YNBDA pH 7.5): 16 µg/mL (≈ 55.9 µM)
MIC (Ca. tropicalis MY1011; MA pH 7.0): 16 µg/mL (≈ 55.9 µM)
MIC (Ca. tropicalis MY1011; SDA pH 5.7): 128 µg/mL (≈ 447 µM)
MIC (Ca. tropicalis MY1011; YNBDA pH 5.5): > 128 µg/mL
MIC (Ca. tropicalis MY1011; YNBDA pH 7.5): 16 µg/mL (≈ 55.9 µM)
MIC ([5]; pH 5.5, read-out: Minimum inhibitory concentration): 4 µg/mL (≈ 14 µM)
MIC ([5]; pH 5.7, read-out: Minimum inhibitory concentration): 2 µg/mL (≈ 6.98 µM)
MIC ([5]; pH 7, read-out: Minimum inhibitory concentration): 2 µg/mL (≈ 6.98 µM)
MIC ([5]; pH 7.5, read-out: Minimum inhibitory concentration): 4 µg/mL (≈ 14 µM)
MIC ([6]; MA pH 7.0, read-out: Minimum inhibitory concentration): 4 µg/mL (≈ 14 µM)
MIC ([6]; SDA pH 5.7, read-out: Minimum inhibitory concentration): 16 µg/mL (≈ 55.9 µM)
MIC ([6]; YNBDA pH 5.5, read-out: Minimum inhibitory concentration): 128 µg/mL (≈ 447 µM)
MIC ([6]; YNBDA pH 7.5, read-out: Minimum inhibitory concentration): 8 µg/mL (≈ 27.9 µM)
MIC ([7]; MA pH 7.0): 16 µg/mL (≈ 55.9 µM)
MIC ([7]; SDA pH 5.7): > 128 µg/mL
MIC ([7]; YNBDA pH 5.5): > 128 µg/mL
MIC ([7]; YNBDA pH 7.5): 8 µg/mL (≈ 27.9 µM)
cfu/ml after 9 h (Candida; 10 ug compound + 100 ug SMX, after 9 h): 10^2 cfu/ml
cfu/ml after 36 h (Candida; 10 ug compound + 100 ug SMX): zero
cfu/ml after 36 h (Candida; 10 ug of compound alone): 10^4 cfu/ml
cfus after 9 h (Candida; 100 ug of each compound (with SMX), after 9 h): no cfus
synergistic activity with sulfa drug (Candida; with sulfa drug (SMX in FIG. 1)): synergistic activity
